The target in one series is T1, LCK tyrosine kinase (Homo sapiens, UniProt P06239, C224D/P223M).
T1 construct: starting from amino acid residue 223 to the end of the protein at residue 509; made in house; host or cells: insect cells
Put plainly: LCK spectrophotometric assay. The following applies: Table 1; for inhibition at 1 µM: compound concentration 1 μM, read-out: Lck-P % inhibition. In kind it is biochemical. As for the experimental part:
The production of ADP from ATP that accompanies phosphoryl transfer was coupled to oxidation of NADH using phosphoenolpyruvate (PEP) and a system having pyruvate kinase (PK) and lactic dehydrogenase (LDH). The oxidation of NADH was monitored by following the decrease of absorbance at 340 nm (e340=6.22 cm^−1 mM^−1) using a Beckman DU 650 spectrophotometer. […] Ki values were determined by measuring enzyme activity in the presence of varying concentrations of test compounds. The data were analyzed using Enzyme Kinetic and Kaleidagraph software.
The spectrophotometric assay was carried out as described above for VEGF-R2, except for the following changes in concentration: LCK=60 nM, MgCl2=0 mM, poly(E4Y1)=20 mM.

A further series deals with T2, human CHK1 (FL-CHK1) (Homo sapiens, UniProt O14757).
T2 construct: C-terminally His-tagged full-length human CHK1 (FL-CHK1); made in house; host or cells: baculovirus/insect cell system
T2 sequence (O14757 1-476): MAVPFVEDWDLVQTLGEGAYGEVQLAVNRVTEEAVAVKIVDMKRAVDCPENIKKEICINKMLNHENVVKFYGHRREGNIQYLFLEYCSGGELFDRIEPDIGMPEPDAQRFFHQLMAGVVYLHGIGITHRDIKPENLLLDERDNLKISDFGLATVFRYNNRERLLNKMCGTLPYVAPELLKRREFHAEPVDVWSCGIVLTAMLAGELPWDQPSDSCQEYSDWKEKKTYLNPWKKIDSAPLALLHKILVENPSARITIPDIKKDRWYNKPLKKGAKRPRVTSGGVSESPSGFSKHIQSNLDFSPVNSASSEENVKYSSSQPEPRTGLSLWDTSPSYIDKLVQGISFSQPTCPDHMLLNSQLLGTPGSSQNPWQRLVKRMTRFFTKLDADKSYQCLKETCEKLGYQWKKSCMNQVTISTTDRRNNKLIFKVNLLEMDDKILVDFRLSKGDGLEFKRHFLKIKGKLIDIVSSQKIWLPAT
Put plainly: CHK1 assay (coupled spectrophotometric, Syntide-2). In kind it is biochemical. The following applies: read-out: CHK-1 Ki. The essentials:
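Full-length C-terminally His-tagged human CHK1 expressed in baculovirus/insect cells, used at 10 nM with Syntide-2 substrate. ADP formation coupled via PK/LDH to NADH oxidation, followed as absorbance decrease at 340 nm. Ki from initial rates at varying compound concentrations.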

The next series has as its target CDK2/Cyclin A (Homo sapiens, UniProt P24941). Description: CDK2/Cyclin A assay ([32P]ATP, Rb fragment). In kind it is biochemical. To be noted: Table 1.
Another series is described as follows: Mouse PK assay. In kind it is in vivo. The following applies: female, B6, plasma, oral. The protocol: Mouse PK Assay The pharmacolinetics (e.g., absorption and elimination) of drugs in mice were analyzed using the following experiment. […] This was administered orally (p.o.) and intraperitoneally (i.p.) at variable doses to two distinct groups (n=4) of B6 female mice. Blood samples were collected via an orbital bleed at time points: 0 hour (pre-dose), 0.5 h, 1.0 h, 2.0 h, and 4.0 h, and 7.0 h post dose. Plasma was obtained from each sample by centrifugation at 2500 rpm for 5 min. Test compound was extracted from the plasma by an organic protein precipitation method. For each time bleed 50 μL of plasma was combined with 1.0 mL of acetonitrile, vortexed for 2 min. and then spun at 4000 rpm for 15 min. to precipitate the protein and extract out the test compound. Next, the acetonitrile supernatant (the extract containing test compound) was poured into new test tubes and evaporated on a hot plate (25° C.) under a steam of N2 gas. […] Test-compound plasma concentrations (μg/mL) were determined by a comparison to standard curve (peak area vs. conc. μg/mL) using known concentrations of test compound extracted from plasma samples in the manner described above. […] The quantitated test samples were plotted for visual display using Kalidagraph software and their pharmacokinetic parameters were determined using WIN NONLIN software.

Series [1] in a line: Human liver microsome (HLM) assay. In kind it is in vitro ADME. To be noted: human liver microsomes, 5 μM test compound. A digest of the protocol:
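LC-MS quantified test compound remaining after 0 and 2 h incubation with human liver microsomes. Triplicate samples, clarified by 10 min centrifugation at 14000 g.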
(Microsomes from liver hold many membrane-bound enzymes, among them those of drug oxidation.)

Series [2] in a line: Determination of inhibitor concentration in mouse plasma after intraperitoneal and oral dosing. The format is in vivo. The essentials:
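Plasma levels quantified by HPLC or LC-MS using a standard curve prepared in mouse plasma, following ethyl acetate extraction with internal standard and sodium hydroxide. Sampling at 0.5, 1, 4 h (ocular bleed) and 7 h (cardiac puncture) after oral or intraperitoneal dosing.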

Another series has as its target human FGF-R1 (Homo sapiens, UniProt P11362, C488A/C584S/L457V). Description: FGF-R spectrophotometric assay.
The next series concerns the target CDK4/Cyclin D3 complex (Homo sapiens, UniProt P11802). Description: CDK4/Cyclin D assay ([32P]ATP, Rb fragment).
The target of series [3] is unphosphorylated VEGF-R2Δ50 (FLVK) (Homo sapiens, UniProt P35968, DEL940-989/E990V). Description: VEGF-R2 coupled spectrophotometric assay, unphosphorylated VEGF-R2Δ50 (FLVK).
Series [4] deals with phosphorylated VEGF-R2Δ50 (FLVK-P) (Homo sapiens, UniProt P35968, DEL940-989/E990V). Description: VEGF-R2 coupled spectrophotometric assay, phosphorylated VEGF-R2Δ50 (FLVK-P).
Series [5] is described as follows: Isomerization under assay conditions. To be noted: Z-isomer. In kind it is physicochemical. As for the experimental part:
Example 33(h) was prepared in the same reaction as Example 33(d). […] Found: C, (66.36), H, (4.08), N, (11.49), S, (6.55).

Series [6] concerns lung cancer cells (line MV522). Put plainly: Cancer cell proliferation (MV522) assay. In kind it is cell-based. As for the experimental part:
Cancer Cell Proliferation (MV522) Assay
The protocol for assessing cellular proliferation in cancer cells is similar to that used for assessments in HUVEC cells. Two thousand lung cancer cells (line MV522, acquired from American Tissue Cultural Collection) were seeded in growth media (RPMI1640 medium supplemented with 2 mM glutamine and 10% FBS). Cells are allowed to attach for 1 day prior to addition of test agents and/or vehicles. Cells are treated simultaneously with the same test agents used in the HUVEC assay. Cellular proliferation is quantified by MTT dye reduction assay 72 hours after exposure to test agents. The total length of the assay is 4 days vs. 5 for HUVEC cells because MV522 cells are not exposed to starvation medium.

Series [7] concerns VEGF dependent retinal neovascularization. Description: In vivo assay of retinal vascular development in neonatal rat model of retinopathy of prematurity. To be noted: ROP model; intravitreal; 10 mg/ml; vehicle PEG/water 70:30. As for the experimental part:
In Vivo Assay of Retinal Vascular Development in Neonatal Rat Model of Retinopathy of Prematurity A second model of VEGF dependent retinal neovascularization was employed to evaluate the activities of this series of compounds. […] This alternating cycle of hyperoxia followed by hypoxia is repeated 7 times after which the animals are removed to room air (P14). Compounds are administered via intravitreal injection upon removal to room air and the animals are sacrificed 6 days later (P20). The isolated retinas are then isolated, stained mounted and analyzed as detail above in the development model. The effectiveness was also graded as is described for the development model.

Series [8] relates to human umbilical vein endothelial cells (HUVEC). Description: HUVEC proliferation assay (VEGF-stimulated, MTT). The format is cell-based. The following applies: Homo sapiens, HUVEC, + albumin; read-out: HUVEC + albumin IC50.
In another series the target is CDK1 (Homo sapiens, UniProt P06493). Put plainly: CDK1 inhibition. In kind it is biochemical. To be noted: Table 3.
Series [9] has as its target T3, phosphorylase kinase (truncated catalytic gamma subunit) (Oryctolagus cuniculus, UniProt P00518).
T3 construct: (gamma subunit) of phosphorylase kinase (amino acids 1-298); made in house
Put plainly: Phosphorylase kinase assay. The format is biochemical. The following applies: 10 μM of compound.
Procedure: Phosphorylase Kinase Assay. In the assay, the purified catalytic subunit is used to phosphorylate phosphorylase b using radiolabled ATP. Briefly, 1.5 mg/ml of phosphorylase b is incubated with 10 nM phosphorylase kinase in 10 Mm MgCl2, 50 mM Hepes pH 7.4, at 37° C. […] The reaction was terminated and proteins were precipitated by the addition of TCA to 10% final concentration. […] The filter plate was then extensively washed with 20% TCA, and dried. Scintilation fluid was then added to the plate and incorporated radiolabel was counted on a Wallac microbeta counter.

Where [10] appears, read: IP, 50 mg/kg, vehicle PEG400:H2O pH 2.3 30:70.
The mark [11] stands for this setting: IP, 25 mg/kg, vehicle PEG400:H2O pH 2.3 60:40.
Setting [12] is: PO, 50 mg/kg, vehicle PEG400:H2O pH 2.3 60:40.

Read-outs that look alike come from different tables or passages of the source.

The source of these data is patent US6534524B1, “Indazole compounds and pharmaceutical compositions for inhibiting protein kinases, and methods for their use” (Agouron Pharmaceuticals, Inc., priority 1999, dated 2003).

Usually Ki stands for a measure of affinity in units of concentration, obtained from inhibition or displacement. Broadly, the AUC is concentration integrated over time. As usually defined, the Cmax is the peak of the concentration-time curve. As usually defined, the inhibition is the share of the control response that was lost under treatment. In general, IC50 refers to the concentration that gives 50% inhibition.

T1 sequence (P06239 223-509 P223M/C224D): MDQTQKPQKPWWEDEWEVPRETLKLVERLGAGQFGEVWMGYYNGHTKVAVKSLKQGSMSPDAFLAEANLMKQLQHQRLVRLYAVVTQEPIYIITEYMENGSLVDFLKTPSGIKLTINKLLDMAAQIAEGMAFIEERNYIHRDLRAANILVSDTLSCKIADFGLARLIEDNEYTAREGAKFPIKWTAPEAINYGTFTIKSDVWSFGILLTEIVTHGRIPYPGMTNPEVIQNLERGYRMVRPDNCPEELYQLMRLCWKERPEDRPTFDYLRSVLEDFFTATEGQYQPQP
Sequence of human FGF-R1 (P11362 456-766 L457V/C488A/C584S): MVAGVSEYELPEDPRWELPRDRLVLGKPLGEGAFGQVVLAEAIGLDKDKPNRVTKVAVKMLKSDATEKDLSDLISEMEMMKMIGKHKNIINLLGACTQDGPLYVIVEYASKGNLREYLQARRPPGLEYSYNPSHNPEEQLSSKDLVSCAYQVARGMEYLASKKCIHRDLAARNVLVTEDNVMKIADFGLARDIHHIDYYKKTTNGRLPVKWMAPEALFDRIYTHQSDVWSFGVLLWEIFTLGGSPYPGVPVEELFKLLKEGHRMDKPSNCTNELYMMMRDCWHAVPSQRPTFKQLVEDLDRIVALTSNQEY
Sequence of unphosphorylated VEGF-R2Δ50 (FLVK) (P35968 with tags, fused parts or gaps DEL940-989/E990V limits assumed): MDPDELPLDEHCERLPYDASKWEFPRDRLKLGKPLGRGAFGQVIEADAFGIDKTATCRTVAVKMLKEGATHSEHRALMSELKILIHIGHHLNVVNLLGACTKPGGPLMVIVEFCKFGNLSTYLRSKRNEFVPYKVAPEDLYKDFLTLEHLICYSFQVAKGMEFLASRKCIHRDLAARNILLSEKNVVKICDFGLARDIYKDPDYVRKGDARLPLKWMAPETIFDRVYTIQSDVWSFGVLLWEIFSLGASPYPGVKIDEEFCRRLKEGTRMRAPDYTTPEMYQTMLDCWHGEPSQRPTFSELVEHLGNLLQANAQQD
Sequence of CDK4/Cyclin D3 complex (P11802 whole entry, the tested form may be a part): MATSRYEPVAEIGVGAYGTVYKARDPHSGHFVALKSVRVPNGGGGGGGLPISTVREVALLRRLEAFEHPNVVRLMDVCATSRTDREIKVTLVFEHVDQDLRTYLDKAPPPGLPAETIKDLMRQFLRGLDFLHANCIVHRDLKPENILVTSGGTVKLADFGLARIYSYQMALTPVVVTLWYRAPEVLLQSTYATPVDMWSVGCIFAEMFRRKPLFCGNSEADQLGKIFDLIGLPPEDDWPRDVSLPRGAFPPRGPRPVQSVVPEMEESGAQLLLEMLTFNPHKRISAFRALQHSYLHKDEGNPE
Sequence of CDK4/Cyclin D3 complex (P30281 whole entry partner, the tested form may be a part): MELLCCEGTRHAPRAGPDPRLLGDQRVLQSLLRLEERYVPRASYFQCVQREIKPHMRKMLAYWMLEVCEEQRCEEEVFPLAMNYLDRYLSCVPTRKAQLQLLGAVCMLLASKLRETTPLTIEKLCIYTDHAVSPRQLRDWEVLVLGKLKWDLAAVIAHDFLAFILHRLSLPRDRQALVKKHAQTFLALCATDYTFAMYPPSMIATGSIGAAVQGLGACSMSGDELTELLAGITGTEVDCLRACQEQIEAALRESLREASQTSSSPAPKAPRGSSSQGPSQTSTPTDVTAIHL
T3 sequence (P00518 2-299 limits assumed): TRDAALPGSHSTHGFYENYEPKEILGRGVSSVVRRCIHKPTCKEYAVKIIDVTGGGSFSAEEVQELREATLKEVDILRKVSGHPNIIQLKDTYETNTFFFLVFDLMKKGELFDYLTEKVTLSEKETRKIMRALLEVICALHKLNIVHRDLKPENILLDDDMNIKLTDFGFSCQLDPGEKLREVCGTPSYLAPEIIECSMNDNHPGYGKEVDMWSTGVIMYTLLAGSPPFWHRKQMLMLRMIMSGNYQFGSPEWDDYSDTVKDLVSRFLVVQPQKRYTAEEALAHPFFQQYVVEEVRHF
Sequence of phosphorylated VEGF-R2Δ50 (FLVK-P) (P35968 with tags, fused parts or gaps DEL940-989/E990V limits assumed): as the sequence (P35968 with tags, fused parts or gaps DEL940-989/E990V limits assumed) above
Sequence of CDK1 (P06493 whole entry, species assumed, the tested form may be a part): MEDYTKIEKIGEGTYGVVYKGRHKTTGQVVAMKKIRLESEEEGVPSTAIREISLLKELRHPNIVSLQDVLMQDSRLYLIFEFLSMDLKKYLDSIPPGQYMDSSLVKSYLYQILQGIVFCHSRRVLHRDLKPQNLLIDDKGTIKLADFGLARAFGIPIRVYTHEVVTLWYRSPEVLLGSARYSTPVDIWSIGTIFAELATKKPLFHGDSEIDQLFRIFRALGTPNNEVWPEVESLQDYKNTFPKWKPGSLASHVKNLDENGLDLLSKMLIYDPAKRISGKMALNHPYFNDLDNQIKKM
Sequence of CDK1 (P14635 whole entry partner, species assumed, the tested form may be a part): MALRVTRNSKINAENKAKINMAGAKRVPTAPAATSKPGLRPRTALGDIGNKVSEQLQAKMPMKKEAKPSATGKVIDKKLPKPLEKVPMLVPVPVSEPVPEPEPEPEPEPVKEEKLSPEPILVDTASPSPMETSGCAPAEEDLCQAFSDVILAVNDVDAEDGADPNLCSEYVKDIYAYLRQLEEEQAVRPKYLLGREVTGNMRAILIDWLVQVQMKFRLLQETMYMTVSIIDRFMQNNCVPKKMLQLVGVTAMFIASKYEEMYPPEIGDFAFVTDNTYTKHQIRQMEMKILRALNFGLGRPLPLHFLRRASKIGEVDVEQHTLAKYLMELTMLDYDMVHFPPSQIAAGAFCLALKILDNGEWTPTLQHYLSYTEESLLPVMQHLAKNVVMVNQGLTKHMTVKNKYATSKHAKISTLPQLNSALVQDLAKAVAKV

With `COc1cc(-c2ccc3c(/C=C/c4ccc(OC)c(OC)c4)n[nH]c3c2)ccc1O` [Example 1(a), 3-[E-2-(3,4-Dimethoxy-phenyl)vinyl]-6-(3-methoxy-4-hydroxy-phenyl)-1H-indazole], the Ki was 88 nM at LCK tyrosine kinase (read-out: Lck-P Ki); 5.2 nM at human CHK1 (FL-CHK1) (Table 1); 19 nM at CDK2/Cyclin A; 27 nM on human FGF-R1; 13 nM on CDK4/Cyclin D3 complex; 0.3 nM in series [3] (FLVK Ki, Table 1). The affinity in [4], expressed as Ki, was 2 nM. This molecule also had an AUC in “Mouse PK assay” of 330 ng·h/mL. In [1], the “% remain (HLM, 2 h)” value was 98%. In series [2] (setting [10]), this molecule displayed an AUClast of 691 ng·h/mL. Moreover, the Cmax in series [2] (setting [10]) worked out at 283 ng/mL. Besides, the “plasma half-life (T1/2)” value in series [2] (setting [10]) came out at 2.4 h.
`O=C(Nc1cccc(Cl)c1)c1ccccc1Sc1ccc2c(/C=C\c3ccccn3)n[nH]c2c1` [Example 33(h), 6-[2-(3-Chlorophenylcarbamoyl)phenylsulfanyl]-3-Z-[2-(pyridin-2-yl)ethenyl]-1H-indazole]: the “Isomerization under assay conditions” value in [5] is “found to isomerize to Example 33(d) under assay conditions”.
For `O=C(Nc1cccc(C(=O)c2ccc3c(/C=N/n4cccc4)n[nH]c3c2)c1)c1ccccc1` [Example 45(b), 6-(3-Benzamidobenzoyl)-3-E-[N-(pyrrol-1-yl)iminomethyl]-1H-indazole], the inhibition at 1 µM on LCK tyrosine kinase turned out to be 86%; on human FGF-R1 (read-out: FGF-P % inhibition, Table 1, compound concentration 1 μM) it was 79%. Inhibition in series [6] was half-maximal at 4400 nM (IC50). The AUClast in [2] (setting [11]) was determined as 11361 ng·h/mL; in series [2] (setting [12]), 1636 ng·h/mL. Besides, the results for the “plasma half-life (T1/2)” value in series [2] (setting [11]) and in [2] (setting [12]) were 2.0 h and 3.0 h, respectively. Besides, the “Initial Evaluation” value in series [7] is given as “++ (two pluses being judged to be approximately 25-75% regression)”. Moreover, in series [3] (read-out: FLVK % inhibition), the inhibition at 0.05 µM was determined as 99%.
Take `Cc1cc(C(=O)Nc2cc(Nc3ccc4c(/C=C/c5ccccn5)n[nH]c4c3)ccc2F)n(C)n1` [Example 49(a), 6-[N-(3-((1,3-Dimethyl-1H-pyrazol-5-yl)carboxamido)-4-fluoro-phenyl)amino]-3-E-[2-(pyridin-2-yl)ethenyl]-1H-indazole]: the inhibition at 1 µM at LCK tyrosine kinase worked out at 11%. The IC50 in [8] is roughly 4 nM; in series [6], 8400 nM. Besides, the AUClast in series [2] (PO, 25 mg/kg, vehicle PEG400:H2O pH 2.3 30:70) was 712 ng·h/mL. For the same molecule, the concentration at 7 h in series [2] (female, PO, 25 mg/kg, vehicle PEG400:H2O pH 2.3 30:70, read-out: Cmin (7 hr conc.)) is 15 ng/mL. Further, on human FGF-R1, the Ki turned out to be 79 nM.
In the case of `C(=C\c1n[nH]c2cc(-c3ccnc4[nH]ccc34)ccc12)/c1ccccc1` [Example 52(b), 6-(7-Azaindol-4-yl)-3-E-styryl-1H-indazole], the inhibitory constant (Ki) on human CHK1 (FL-CHK1) (Table 3) is 80 nM; at CDK1, 41 nM. This molecule yielded an inhibition at 10 µM in [9] of 92%. In [3] (read-out: FLVK % inhibition), the inhibition at 1 µM came out at 94%.
